Reference: patent US20250242064A1, “CXCR4-TARGETING COMPOUNDS, AND METHODS OF MAKING AND USING THE SAME” (PROVINCIAL HEALTH SERVICES AUTHORITY, priority 2022, published 2025)
Where a SMILES comes first, the peptide text is derived from it. Bridges are numbered along the chain shown (N, C = ends). Side-chain parts run from the residue outwards. [ ]: non-standard residue; d: D form. The star is where a group is joined. X4 = O=C(O)CN1CCN(CC(=O)O)CCN(CC(=O)N[C@@H](CS(=O)(=O)O)C(=O)NCCCC[C@H](NC(=O)CNC(=O)CCCc2ccc(Cl)cc2)C(=O)*)CCN(CC(=O)O)CC1; X5 = O=C(O)CN1CCN(CC(=O)O)CCN(CC(=O)N[C@@H](CS(=O)(=O)O)C(=O)N[C@@H](CCCCNC(=O)CCCc2ccc(Cl)cc2)C(=O)*)CCN(CC(=O)O)CC1; X7 = COc1ccc(CCCC(=O)NCCCC[C@H](NC(=O)CN2CCN(CC(=O)O)CCN(CC(=O)O)CCN(CC(=O)O)CC2)C(=O)*)cc1; DOTA = O=C(O)CN1CCN(CC(=O)O)CCN(CC(=O)*)CCN(CC(=O)O)CC1; NMeLys(iPr) = CN[C@@H](CCCCNC(C)C)C(=O)O; 2Nal = N[C@@H](Cc1ccc2ccccc2c1)C(=O)O; Lys(iPr) = CC(C)NCCCC[C@H](N)C(=O)O; Cya = N[C@@H](CS(=O)(=O)O)C(=O)O

Assay: in vivo
Parameters: species or system mice
Settings: male, NOD.Cg-Rag1tm1Mom Il2rgtm1Wjl/SzJ (NRG), mouse, iv, total radioactivity
Outline: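 Male NRG mice bearing subcutaneous Z138 mantle cell lymphoma xenografts (5×10^6 cells, grown to 200-300 mm^3) injected intravenously under isoflurane with 68Ga-labelled tracers. Harvested tissues weighed and gamma-counted; uptake expressed as % ID/g.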

[1] = Biodistribution: Small Intestine

SMILES	tissue uptake at 1 h (Biodistribution: Adrenals) [%ID/g]	tissue uptake at 1 h (Biodistribution: Blood) [%ID/g]	tissue uptake at 1 h (Biodistribution: Bone) [%ID/g]	tissue uptake at 1 h (Biodistribution: Brain) [%ID/g]	tissue uptake at 1 h (Biodistribution: Heart) [%ID/g]	tissue uptake at 1 h (Biodistribution: Kidneys) [%ID/g]	tissue uptake at 1 h (Biodistribution: Liver) [%ID/g]	tissue uptake at 1 h (Biodistribution: Lungs) [%ID/g]	tissue uptake at 1 h (Biodistribution: Muscle) [%ID/g]	tissue uptake at 1 h (Biodistribution: Pancreas) [%ID/g]	tissue uptake at 1 h [1] [%ID/g]	tissue uptake at 1 h (Biodistribution: Spleen) [%ID/g]	tissue uptake at 1 h (Biodistribution: Stomach) [%ID/g]	tissue uptake at 1 h (Biodistribution: Testes) [%ID/g]	tissue uptake at 1 h (Biodistribution: Z138 Tumor) [%ID/g]	tissue to tissue ratio at 1 h (Ratio Tumor-to-Blood)	tissue to tissue ratio at 1 h (Ratio Tumor-to-Bone)	tissue to tissue ratio at 1 h (Ratio Tumor-to-Kidney)	tissue to tissue ratio at 1 h (Ratio Tumor-to-Muscle)	tissue to tissue ratio at 1 h (Ratio Tumor-to-Pancreas)	further results
CC(C)NCCCC[C@H](NC(=O)[C@H]1CCC(=O)N[C@@H](CCCCNC(=O)[C@H](CCCCNC(=O)[C@H](CS(=O)(=O)O)NC(=O)CN2CCN(CC(=O)O)CCN(CC(=O)O)CCN(CC(=O)O)CC2)NC(=O)CNC(=O)CCCc2ccc(Cl)cc2)C(=O)N[C@@H](Cc2ccc(O)cc2)C(=O)N[C@@H](CCCCNC(C)C)C(=O)N[C@H](CCCNC(=N)N)C(=O)N[C@@H](Cc2ccc3ccccc3c2)C(=O)N[C@H](C)C(=O)N1)C(N)=O [[68Ga]Ga-BL34T1, metal not drawn] (K(X4)Y[Lys(iPr)][dR][2Nal][dA][dE][Lys(iPr)]-NH2; lactam N-7)	2.62	13.3	1.04	0.19	3.11	5.01	2.9	9.23	0.99	1.24	1.31	2.3	0.49	1.95	12.2	0.93	12.7	2.52	12.8	10.1	tissue uptake at 3 h (Biodistribution: Adrenals): 1.93 %ID/g; tissue uptake at 3 h (Biodistribution: Blood): 7.55 %ID/g; tissue uptake at 3 h (Biodistribution: Bone): 1.28 %ID/g; tissue uptake at 3 h (Biodistribution: Brain): 0.16 %ID/g; tissue uptake at 3 h (Biodistribution: Heart): 1.91 %ID/g; tissue uptake at 3 h (Biodistribution: Kidneys): 4.15 %ID/g; tissue uptake at 3 h (Biodistribution: Liver): 3.02 %ID/g; tissue uptake at 3 h (Biodistribution: Lungs): 5.9 %ID/g; tissue uptake at 3 h (Biodistribution: Muscle): 0.73 %ID/g; tissue uptake at 3 h (Biodistribution: Pancreas): 0.92 %ID/g; tissue uptake at 3 h [1]: 0.89 %ID/g; tissue uptake at 3 h (Biodistribution: Spleen): 2.08 %ID/g; tissue uptake at 3 h (Biodistribution: Stomach): 0.44 %ID/g; tissue uptake at 3 h (Biodistribution: Testes): 1.71 %ID/g; tissue uptake at 3 h (Biodistribution: Z138 Tumor): 23.7 %ID/g; tissue to tissue ratio at 3 h (Ratio Tumor-to-Blood): 3.17; tissue to tissue ratio at 3 h (Ratio Tumor-to-Bone): 21.9; tissue to tissue ratio at 3 h (Ratio Tumor-to-Kidney): 5.78; tissue to tissue ratio at 3 h (Ratio Tumor-to-Muscle): 32.6; tissue to tissue ratio at 3 h (Ratio Tumor-to-Pancreas): 26
COc1ccc(CCCC(=O)NCCCC[C@H](NC(=O)CN2CCN(CC(=O)O)CCN(CC(=O)O)CCN(CC(=O)O)CC2)C(=O)N[C@@H](CS(=O)(=O)O)C(=O)NCCCC[C@@H]2NC(=O)CC[C@H](C(=O)N[C@@H](CCCCNC(C)C)C(N)=O)NC(=O)[C@@H](C)NC(=O)[C@H](Cc3ccc4ccccc4c3)NC(=O)[C@@H](CCCNC(=N)N)NC(=O)[C@H](CCCCNC(C)C)NC(=O)[C@H](Cc3ccc(O)cc3)NC2=O)cc1 [[68Ga]Ga-BL34L6, metal not drawn] (K([Cya-X7])Y[Lys(iPr)][dR][2Nal][dA][dE][Lys(iPr)]-NH2; lactam N-7)	0.29	0.83	0.14	0.01	0.22	2.07	1.6	0.99	0.12	0.12	0.24	0.45	0.05	0.26	8.92	11.6	66.5	4.36	84.6	75.3	
CC(C)NCCCC[C@H](NC(=O)[C@H]1CCC(=O)N[C@@H](CCCCNC(=O)[C@H](CCCCNC(=O)CCCc2ccc(Cl)cc2)NC(=O)[C@H](CS(=O)(=O)O)NC(=O)CN2CCN(CC(=O)O)CCN(CC(=O)O)CCN(CC(=O)O)CC2)C(=O)N[C@@H](Cc2ccc(O)cc2)C(=O)N[C@@H](CCCCNC(C)C)C(=O)N[C@H](CCCNC(=N)N)C(=O)N[C@@H](Cc2ccc3ccccc3c2)C(=O)N[C@H](C)C(=O)N1)C(N)=O [[^68Ga]Ga-BL34L16, metal not drawn] (K(X5)Y[Lys(iPr)][dR][2Nal][dA][dE][Lys(iPr)]-NH2; lactam N-7)	1.63	7.27	2.65	0.11	1.66	3.56	2.61	5.9	0.61	0.76	0.86	2.48	0.26	1.16	10.1	1.38	6.11	2.83	16.8	13.6	tissue uptake at 3 h (Biodistribution: Adrenals): 0.7 %ID/g; tissue uptake at 3 h (Biodistribution: Blood): 2.7 %ID/g; tissue uptake at 3 h (Biodistribution: Bone): 2.01 %ID/g; tissue uptake at 3 h (Biodistribution: Brain): 0.06 %ID/g; tissue uptake at 3 h (Biodistribution: Heart): 0.67 %ID/g; tissue uptake at 3 h (Biodistribution: Kidneys): 2.2 %ID/g; tissue uptake at 3 h (Biodistribution: Liver): 2.33 %ID/g; tissue uptake at 3 h (Biodistribution: Lungs): 2.85 %ID/g; tissue uptake at 3 h (Biodistribution: Muscle): 0.32 %ID/g; tissue uptake at 3 h (Biodistribution: Pancreas): 0.31 %ID/g; tissue uptake at 3 h [1]: 0.41 %ID/g; tissue uptake at 3 h (Biodistribution: Spleen): 2.05 %ID/g; tissue uptake at 3 h (Biodistribution: Stomach): 0.16 %ID/g; tissue uptake at 3 h (Biodistribution: Testes): 0.68 %ID/g; tissue uptake at 3 h (Biodistribution: Z138 Tumor): 15.2 %ID/g; tissue to tissue ratio at 3 h (Ratio Tumor-to-Blood): 5.74; tissue to tissue ratio at 3 h (Ratio Tumor-to-Bone): 19.3; tissue to tissue ratio at 3 h (Ratio Tumor-to-Kidney): 6.92; tissue to tissue ratio at 3 h (Ratio Tumor-to-Muscle): 50.4; tissue to tissue ratio at 3 h (Ratio Tumor-to-Pancreas): 50.7
CC(C)NCCCC[C@H](NC(=O)[C@H]1CCC(=O)N[C@@H](CCCCNC(=O)[C@H](CS(=O)(=O)O)NC(=O)CN2CCN(CC(=O)O)CCN(CC(=O)O)CCN(CC(=O)O)CC2)C(=O)N[C@@H](Cc2ccc(O)cc2)C(=O)N(C)[C@@H](CCCCNC(C)C)C(=O)N[C@H](CCCNC(=N)N)C(=O)N[C@@H](Cc2ccc3ccccc3c2)C(=O)N[C@H](C)C(=O)N1)C(N)=O [[^68Ga]Ga-BL34N1, metal not drawn] (K([Cya-DOTA])Y[NMeLys(iPr)][dR][2Nal][dA][dE][Lys(iPr)]-NH2; lactam N-7)	0.17	0.32	0.13	0.02	0.12	2.7	0.71	0.44	0.09	0.08	0.19	0.26	0.05	0.18	12	37.7	92.2	4.6	157	146	
